# Results as given in paper PMC11574021, “CEP192 localises mitotic Aurora-A activity by priming its interaction with TPX2” (The EMBO Journal, 2024).
# Test system: Aurora-A-pT288 in U251 cells
# Test: Immunofluorescence, Aurora-A-pT288 spindle pole signal intensity, U251
# Assay type: cell-based, Homo sapiens
# Conditions: U251, siRNA 48 h or Aurora-A inhibitor 30 min (250 nM)
# Experimental: Drugs were resuspended in DMSO to the stock concentrations indicated in square brackets.
# For immunofluorescence, 1 × 10^5 cells were seeded in six-well plates and simultaneously transfected with 60 pmol siRNA duplex and 3 µl transfection reagent diluted in 200 µl Opti-MEM serum-free medium. Growth medium was added to a final volume of 2 ml. For western blotting, 1 × 10^6 cells were seeded in 10 cm dishes and transfected with 300 pmol siRNA duplex and 15 µl transfection reagent diluted in 1000 µl Opti-MEM. Growth medium was added to a final volume of 10 ml. Cells were incubated with siRNA for 48 h prior to fixation or harvesting. As a negative control (siControl) Silencer select negative control No.1 siRNA was transfected as above. For TACC3 depletion, where two siRNA duplexes were used, 40 pmol of each was transfected per well.
# For siRNA depletion, 1 × 10^5 cells were seeded in six-well plates and transfected as described above for 48 h prior to fixation. For all other experiments, 2.5 × 10^5 cells were seeded in six-well plates and grown for 24 h before fixation. […] Cells in Fig. EV4A were fixed using 4% (wt/v) paraformaldehyde (PFA) in PBS for 12 min, followed by 10 min quenching in 50 mM NH4Cl in PBS and 5 min of permeabilization with 0.2% (v/v) Triton X-100 in PBS, all at room temperature. For centriole staining in Fig. EV4E, cells were fixed in pre-chilled methanol for 10 min at −20 °C, incubated in PBS for 10 min and then 5 min in 0.5% Triton-X-100, 0.5% Tween, 0.05% SDS in PBS (v/v). […]
# Here “area” refers to the area of DAPI-stained DNA, determined by thresholding (default mode) the region of interest. […] The diameter calculated, therefore, refers to that of a circle with equivalent area to the DAPI signal measured previously. The area of the nuclear DAPI signal (Appendix Fig. S6I) was determined by thresholding (as above). […] All fluorescence intensity and area measurements were obtained from maximum intensity z-projections. […]
row,Compound,centrosomal/spindle pole Aurora-A-pT288 signal
1,COc1cc(Nc2ncc3c(n2)-c2ccc(Cl)cc2C(c2c(F)cccc2OC)=NC3)ccc1C(=O)O [Alisertib],obliterated
2,5′-CAAACAACUUGGAAAUCGAtt-3′ [siCEP192],diminished the intensity of pT288 signal
3,5′-CGGUAGUGAUAAAAGCUCAtt-3′ [siTPX2],diminished the intensity of pT288 signal
